In patent US20040049799A1, “Method for screening agents capable of treating obesity” (priority 2000, published 2004):

Tested on: messenger for the SPARC protein in the adipose tissue
Assay: expression of the messenger for the SPARC protein in adipose tissue after insulin injection
Assay type: in vivo
Settings: injected into mice

insulin
expression of the messenger for the SPARC protein in the adipose tissue: increases the expression of the messenger for the SPARC protein
